From patent publication US8592383B2, “Cycloalkyl-fused tetrahydroquinolines as CRTH2 receptor modulators” (Merck Sharp & Dohme Corp., priority 2011, dated 2013)

molecular target: T1, hCRTH2 (Homo sapiens, UniProt Q9Y5Y4); test: not given; design: expressed in transfected cells; host or cells: HEK (human embryonic kidney) cells expressing hCRTH2; conditions: Radioligand Binding Assay B; Table B, rated A-D
T1 sequence (Q9Y5Y4 1-395): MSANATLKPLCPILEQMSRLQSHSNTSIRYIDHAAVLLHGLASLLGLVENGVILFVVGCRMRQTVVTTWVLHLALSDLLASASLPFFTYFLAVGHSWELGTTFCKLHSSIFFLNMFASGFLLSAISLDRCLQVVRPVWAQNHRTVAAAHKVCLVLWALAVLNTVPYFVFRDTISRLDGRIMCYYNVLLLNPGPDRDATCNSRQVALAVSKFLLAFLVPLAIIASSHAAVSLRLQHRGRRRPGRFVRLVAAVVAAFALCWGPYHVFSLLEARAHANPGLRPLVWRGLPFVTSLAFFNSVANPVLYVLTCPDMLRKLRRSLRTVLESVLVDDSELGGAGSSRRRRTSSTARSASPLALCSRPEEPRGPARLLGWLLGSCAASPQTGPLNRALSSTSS
Protocol: The filters were then washed with 4 mL of the same buffer and residual radioligand bound to the filter was determined by liquid scintillation counting following equilibration in 25 μl Ultima Gold F™ (Unifilter) (Packard).

First: O=C(c1ccccc1)N1c2ccccc2[C@@H](N(C(=O)OCCO)C2CC2)[C@H]2CCC[C@H]21 (racemic) [compound 29, 2-Hydroxyethyl cyclopropyl[cis,cis-4-(phenylcarbonyl)-2,3,3a,4,9,9a-hexahydro-1H-cyclopenta[b]quinolin-9-yl]carbamate]
Second: O=C(O)COC(=O)N(C1CC1)[C@@H]1c2ccccc2N(C(=O)c2ccccc2)[C@@H]2CCC[C@@H]21 (racemic) [compound 30, ({Cyclopropyl[cis,cis-4-(phenylcarbonyl)-2,3,3a,4,9,9a-hexahydro-1H-cyclopenta[b]quinolin-9-yl]carbamoyl}oxy)acetic acid]
The Ki of the first is higher: 201 to 7500 nM for the first, 5.1 to 20 nM for the second.

`O=C(O)COC(=O)N(C1CC1)[C@@H]1c2ccccc2N(C(=O)c2ccc(OC(F)(F)F)cc2)[C@@H]2CCC[C@@H]21` (racemic) [compound 31, ({Cyclopropyl[cis,cis-4-{[4-(trifluoromethoxy)phenyl]carbonyl}-2,3,3a,4,9,9a-hexahydro-1H-cyclopenta[b]quinolin-9-yl]carbamoyl}oxy)acetic acid] and `O=C(O)COC(=O)N(C1CC1)C1c2ccccc2N(c2nnc(-c3ccccc3)o2)C2CCCC21` (racemic) [compound 37, ({Cyclopropyl[cis,cis-4-(5-phenyl-1,3,4-oxadiazol-2-yl)-2,3,3a,4,9,9a-hexahydro-1H-cyclopenta[b]quinolin-9-yl]carbamoyl}oxy)acetic acid] fall in the same range of Ki: 5.1 to 20 nM for the first, 5.1 to 20 nM for the second.

`O=C(O)CCC(=O)N(C1CC1)[C@@H]1c2ccccc2N(c2nnc(Cc3ccccc3)o2)[C@@H]2CCC[C@@H]21` (racemic) [compound 36, 4-{[cis-4-(5-Benzyl-1,3,4-oxadiazol-2-yl)-2,3,3a,4,9,9a-hexahydro-1H-cyclopenta[b]quinolin-9-yl](cyclopropyl)amino}-4-oxobutanoic acid] and `CCN(c1nc(C(=O)O)cs1)[C@@H]1c2ccccc2N(C(=O)OCc2ccccc2)[C@@H]2CCC[C@H]12` (racemic) [compound 39, 2-[{cis,cis-4-[(Benzyloxy)carbonyl]-2,3,3a,4,9,9a-hexahydro-1H-cyclopenta[b]quinolin-9-yl}(ethyl)amino]-1,3-thiazole-4-carboxylic acid] fall in the same range of Ki: 20.1 to 200 nM for the first, 20.1 to 200 nM for the second.

molecular target: T1, hCRTH2; test: biochemical; conditions: Ki (nM)
Protocol: Competing ligands were diluted in dimethylsulfoxide (Me2SO) that was kept constant at 1% (v/v) of the final incubation volume. The reaction was initiated by the addition of 8-20 g of membrane protein prepared from a human embryonic kidney (HEK)-hCRTH2 cell line. Total and non-specific binding were determined in the absence and the presence of 10 μM PGD2, respectively. Under these conditions, specific binding (total minus non-specific) of the radioligand to the receptor reached equilibrium within 50 min and was stable up to 180 min. The reaction was routinely conducted for 60 min at room temperature and terminated by rapid filtration through prewetted (0.3% polyethyleneimine) 96-well printed Filtermate™ (Wallac) using a Tomtec® harvester (Hamden, Conn.). After washing with cold buffer, the filter was dried for 2 minutes in microwave, and Meltilex Scintillator sheet (Wallac) was melted on for 2 min.

In the case of `O=C(O)CCC(=O)N(C1CC1)[C@@H]1c2ccccc2N(C(=O)OCc2ccc(F)cc2)[C@@H]2CCC[C@@H]21` (single isomer, unassigned) [compound 22, 4-[(4-Fluorophenyl)methyl]cis,cis-[(3-carboxy-1-oxopropyl)cyclopropylamino]-1,2,3,3a,9,9a-hexahydro-4H-cyclopenta[b]quinoline-4-carboxylate], the Ki is reported as 5.1 to 20 nM.

same assay, conditions: Ki, Radioligand Binding Assay A; 3.0 nM [3H]PGD2, HEK-hCRTH2 membranes

Point of comparison: `O=C(O)CCC(=O)N(C1CC1)C1c2ccccc2N(C(=O)c2ccc(-c3cncs3)cc2)C2CCCC21` (racemic) [18o, 4-[cyclopropyl[cis,cis-2,3,3a,4,9,9a-hexahydro-4-[4-(5-thiazolyl)benzoyl]-1H-cyclopenta[b]quinolin-9-yl]amino]-4-oxobutanoic acid], Ki 9.8 nM. Against it:
- O=C(O)CCC(=O)N(C1CC1)C1c2ccccc2N(C(=O)c2ccco2)C2CCCC21 (racemic) [17BL, 4-(cyclopropyl(cis,cis-4-(furan-2-carbonyl)-2,3,3a,4,9,9a-hexahydro-1H-cyclopenta[b]quinolin-9-yl)amino)-4-oxobutanoic acid] — 3.7-fold higher, 36 nM
- O=C(O)c1ccccc1C(=O)N(C1CC1)[C@@H]1c2ccccc2N(C(=O)c2ccc(OC(F)(F)F)cc2)[C@@H]2CCC[C@@H]21 (racemic) [17Ci, 2-[[cyclopropyl[cis,cis-2,3,3a,4,9,9a-hexahydro-4-[4-(trifluoromethoxy)benzoyl]-1H-cyclopenta[b]quinolin-9-yl]amino]carbonyl]benzoic acid] — 86-fold higher, 838 nM
- CN(C(=O)CCC(=O)O)C1c2ccccc2N(C(=O)OCc2ccccc2)C2CCCC12 (racemic) [17U, 4-(phenylmethyl) cis,cis-9-[(3-carboxy-1-oxopropyl)methylamino]-1,2,3,3a,9,9a-hexahydro-4H-cyclopenta[b]quinoline-4-carboxylate] — 62-fold higher, 605 nM
- CCOc1cnc(-c2ccc(C(=O)N3c4ccccc4C(N(C(=O)CCC(=O)O)C4CC4)C4CCCC43)cc2)nc1 (racemic) [18P, 4-[cyclopropyl[cis,cis-4-[4-(5-ethoxy-2-pyrimidinyl)benzoyl]-2,3,3a,4,9,9a-hexahydro-1H-cyclopenta[b]quinolin-9-yl]amino]-4-oxobutanoic acid] — 2.9-fold higher, 28.5 nM
- O=C(O)CCCN(C1CC1)[C@@H]1c2ccccc2N(C(=O)c2ccc(OC(F)(F)F)cc2)[C@@H]2CCC[C@@H]21 (racemic) [compound 44, 4-[Cyclopropyl[cis,cis-2,3,3a,4,9,9a-hexahydro-4-[4-(trifluoromethoxy)benzoyl]-1H-cyclopenta[b]quinolin-9-yl]amino]butanoic acid] — 3.9-fold lower, 2.54 nM
- O=C(O)CCC(=O)N(C1CC1)C1c2ccc(Cl)cc2N(C(=O)OCc2ccccc2)C2CCCC21 (single isomer, unassigned) [9A, 4-(phenylmethyl) cis,cis-[(3-carboxy-1-oxopropyl)cyclopropylamino]-6-chloro-1,2,3,3a,9,9a-hexahydro-4H-cyclopenta[b]quinoline-4-carboxylate] — 2.1-fold lower, 4.7 nM
- O=C(O)CCC(=O)N(C1CCC1)C1c2ccc(Cl)cc2N(C(=O)c2ccc(F)c(F)c2)C2CCCC21 (single isomer, unassigned) [17Co, 4-[[cis,cis-6-chloro-4-(3,4-difluorobenzoyl)-2,3,3a,4,9,9a-hexahydro-1H-cyclopenta[b]quinolin-9-yl]cyclobutylamino]-4-oxobutanoic acid] — within 1.5-fold, 10.9 nM
- O=C(O)CCC(=O)N(C1CCC1)[C@@H]1c2ccccc2N(C(=O)c2cccc(OC(F)(F)F)c2)[C@@H]2CCC[C@@H]21 (single isomer, unassigned) [17DA, 4-[cyclobutyl[cis,cis-2,3,3a,4,9,9a-hexahydro-4-[3-(trifluoromethoxy)benzoyl]-1H-cyclopenta[b]quinolin-9-yl]amino]-4-oxobutanoic acid] — 3.5-fold higher, 34.2 nM
- CCN(C(=O)CCC(=O)O)C1c2ccccc2N(C(=O)OCc2cc(F)cc(F)c2)C2CCCC12 (single isomer, unassigned) [22A, 4-[(3,5-difluorophenyl)methyl] cis, cis-[(3-carboxy-1-oxopropyl)ethylamino]-1,2,3,3a,9,9a-hexahydro-4H-cyclopenta[b]quinoline-4-carboxylate] — 110-fold higher, 1080 nM
- O=C(O)CCC(=O)N(C1CC1)C1c2ccc(Cl)cc2N(C(=O)c2ccc(OC(F)(F)F)cc2)C2CCC21 (single isomer, unassigned) [27K, 4-[[cis, cis-5-chloro-1,2,2a,3,8,8a-hexahydro-3-[4-(trifluoromethoxy)benzoyl]cyclobuta[b]quinolin-8-yl]cyclopropylamino]-4-oxobutanoic acid] — 6.5-fold lower, 1.5 nM
- O=C(O)COC(=O)N(C1CC1)C1c2ccccc2N(c2nnc(Cc3ccc(OC(F)(F)F)cc3)o2)C2CCCC21 (single isomer, unassigned) [38G, [[[cyclopropyl[cis,cis-2,3,3a,4,9,9a-hexahydro-4-[5-[[4-(trifluoromethoxy)phenyl]methyl]-1,3,4-oxadiazol-2-yl]-1H-cyclopenta[b]quinoline-9-yl]amino]carbonyl]oxy]acetic acid] — 65-fold higher, 638 nM
